Measured values published in article PMC9933483, “Tail-Approach-Based Design and Synthesis of Coumarin-Monoterpenes as Carbonic Anhydrase Inhibitors and Anticancer Agents” (ACS Omega, 2023).

Legend:
HT-29 cell line = assay: Cell cytotoxicity, MTT assay; assay type: cell-based, human; details: Homo sapiens, HT-29; MTT, 24 h
MCF-7 cell line = assay: Cell cytotoxicity, MTT assay; assay type: cell-based, human; details: Homo sapiens, MCF7, 24 h
PC-3 cell line = assay: Cell cytotoxicity, MTT assay; assay type: cell-based; details: Homo sapiens, 24 h
HEK293T cell line = assay: Cell cytotoxicity, MTT assay; assay type: cell-based; details: Homo sapiens, HEK-293T, 24 h, healthy cell line
hCA IX = hCA IX (Homo sapiens, UniProt Q16790); assay: biochemical
CA XII = assay: Western blotting of CA XII protein expression in MCF-7 cells; assay type: cell-based, human; details: western blot, hypoxia (200 μM CoCl2), 24 h, three doses
Protocol: (§1) CA IX and CA XII protein expressions were evaluated in treated and control HT-29 and MCF7 cells after hypoxia induction. Cells were seeded in a 6-well plate in DMEM/F12 (normoxic cells) or DMEM/F12 containing 200 μM CoCl2 (hypoxic and treated cells) in order to create hypoxia.[25] HT29 cells were treated with 14 (40, 10, and 1.25 μM), 23 (80, 20, and 1.25 μM), and 66 (80, 20, and 1.25 μM), and MCF7 cells were treated with 14 (40, 10, and 1.25 μM), 23 (80, 20, and 1.25 μM), and 63 (80, 20, and 1.25 μM) for 24 h at three different doses. After the treatment period, cells were washed with cold PBS and homogenized into Ripa cell lysis buffer (Santa Cruz, USA). Samples were prepared, electrophoresed, and transferred according to the literature.[25] The membranes were blocked in 5% fat-free milk (w/v) for 1 h at RT, incubated with the corresponding antibody at 4 °C overnight, and then incubated with the horseradish peroxidase (HRP)-labeled secondary antibody for 1 h at RT. The following antibodies were used: anti-CA IX (ab107257, Abcam), anti-CA XII (sc-374314, Santa Cruz), and anti-GAPDH (A19056, Abclonal). Finally, the membranes were stained with ECL reagents (LumiGLO, CST, USA), and then, imaging was performed with the Bio-Rad Chemidoc Imaging System. The bands were calculated with the Image Lab (Bio-Rad, USA) and analyzed with Graphpad Prism 9.00 (San Diego, CA, USA).

CA IX = assay: Western blotting of CA IX protein expression in MCF-7 cells; assay type: cell-based, human; details: western blot, hypoxia (200 μM CoCl2), 24 h, three doses
Protocol: as §1

SMILES | melting point | IC50 (HT-29 cell line) | IC50 (MCF-7 cell line) | IC50 (PC-3 cell line) | IC50 (HEK293T cell line) | Ki (hCA IX) | CA XII expression in MCF-7 cells (CA XII) | CA IX expression in MCF-7 cells (CA IX)
C=CCc1ccc(OCc2cn(CCCOc3ccc4ccc(=O)oc4c3)nn2)c(OC)c1 [Compound 29, 7-(3-(4-((4-Allyl-2-methoxyphenoxy)methyl)-1H-1,2,3-triazol-1-yl)propoxy)-2H-chromen-2-one] | 88 to 89 °C | 23.5 ± 7.22 µM | 20.6 ± 6.5 µM | 32.4 ± 9.16 µM | 34.1 ± 8.6 µM | – | – | –
C=CCc1ccc(OCc2cn(CCCCCCCOc3ccc4ccc(=O)oc4c3)nn2)c(OC)c1 [Compound 32, 7-((7-(4-((4-Allyl-2-methoxyphenoxy)methyl)-1H-1,2,3-triazol-1-yl)heptyl)oxy)-2H-chromen-2-one] | 101 to 102 °C | 16.3 ± 5.34 µM | > 200 µM | 36.7 ± 29 µM | 40.6 ± 13.7 µM | – | – | –
C=CCc1ccc(OCCOc2ccc3ccc(=O)oc3c2)c(OC)c1 [Compound 60, 7-(2-(4-Allyl-2-methoxyphenoxy)ethoxy)-2H-chromen-2-one] | 86 to 87 °C | > 80 µM | 18.5 ± 3.59 µM | 31.5 ± 8.71 µM | > 80 µM | 0.176 µM | – | –
Cc1ccc(C(C)C)c(OCc2cn(CCCCCCCCCCCCOc3ccc4ccc(=O)oc4c3)nn2)c1 [Compound 19, 7-((12-(4-((2-Isopropyl-5-methylphenoxy)methyl)-1H-1,2,3-triazol-1-yl)dodecyl)oxy)-2H-chromen-2-one] | 68 to 69 °C | 37.6 ± 11.7 µM | – | – | – | 0.0218 µM | – | –
C=CCc1ccc(OCCCCCCOc2ccc3ccc(=O)oc3c2)c(OC)c1 [Compound 63, 7-((6-(4-Allyl-2-methoxyphenoxy)hexyl)oxy)-2H-chromen-2-one] | – | > 200 µM | 3.91 ± 2.16 µM | 36.4 ± 12.3 µM | 40.6 ± 12.1 µM | – | decreased | decreased
Cc1ccc(C(C)C)cc1OCc1cn(CCCCCCCCCOc2ccc3ccc(=O)oc3c2)nn1 [Compound 25, 7-((9-(4-((5-Isopropyl-2-methylphenoxy)methyl)-1H-1,2,3-triazol-1-yl)nonyl)oxy)-2H-chromen-2-one] | 69 to 70 °C | 47.6 ± 13.8 µM | – | – | – | 0.0897 µM | – | –
C=CCc1ccc(OCc2cn(CCOc3ccc4ccc(=O)oc4c3)nn2)c(OC)c1 [Compound 28, 7-(2-(4-((4-Allyl-2-methoxyphenoxy)methyl)-1H-1,2,3-triazol-1-yl)ethoxy)-2H-chromen-2-one] | 118 to 119 °C | 25.8 ± 8.4 µM | – | – | – | 0.0319 µM | – | –
Cc1ccc(C(C)C)cc1OCc1cn(CCCCCCCOc2ccc3ccc(=O)oc3c2)nn1 [Compound 24, 7-((7-(4-((5-Isopropyl-2-methylphenoxy)methyl)-1H-1,2,3-triazol-1-yl)heptyl)oxy)-2H-chromen-2-one] | 83 to 84 °C | 56.9 ± 18.2 µM | > 200 µM | > 200 µM | 134 ± 60.4 µM | 0.0327 µM | – | –
Cc1ccc(C(C)C)cc1OCc1cn(CCCCCCCCCCCCOc2ccc3ccc(=O)oc3c2)nn1 [Compound 27, 7-((12-(4-((5-Isopropyl-2-methylphenoxy)methyl)-1H-1,2,3-triazol-1-yl)dodecyl)oxy)-2H-chromen-2-one] | 80 to 81 °C | 29.6 ± 6.47 µM | – | – | – | 0.0304 µM | – | –
CC1CCC(C(C)C)C(OCc2cn(CCCCOc3ccc4ccc(=O)oc4c3)nn2)C1 (centres unmarked) [Compound 38, 7-(4-(4-(((2-Isopropyl-5-methylcyclohexyl)oxy)methyl)-1H-1,2,3-triazol-1-yl)butoxy)-2H-chromen-2-one] | 75 to 76 °C | 37.2 ± 11.6 µM | – | – | – | 0.3 µM | – | –
CC1CCC(C(C)C)C(OCc2cn(CCCOc3ccc4ccc(=O)oc4c3)nn2)C1 (centres unmarked) [Compound 37, 7-(3-(4-(((2-Isopropyl-5-methylcyclohexyl)oxy)methyl)-1H-1,2,3-triazol-1-yl)propoxy)-2H-chromen-2-one] | 78 to 79 °C | 39.9 ± 11.8 µM | 18.4 ± 3.81 µM | 29.1 ± 6.83 µM | 24.2 ± 3.2 µM | – | – | –
Cc1ccc(C(C)C)cc1OCCOc1ccc2ccc(=O)oc2c1 [Compound 52, 7-(2-(5-Isopropyl-2-methylphenoxy)ethoxy)-2H-chromen-2-one] | 172 to 173 °C | 74.2 ± 6.48 µM | – | – | – | – | – | –
CC1CCC(C(C)C)C(OCc2cn(CCCCCCCCCCCCOc3ccc4ccc(=O)oc4c3)nn2)C1 (centres unmarked) [Compound 43, 7-((12-(4-(((2-Isopropyl-5-methylcyclohexyl)oxy)methyl)-1H-1,2,3-triazol-1-yl)dodecyl)oxy)-2H-chromen-2-one] | 59 to 60 °C | 27.2 ± 6.18 µM | 77.2 ± 34.8 µM | 32.3 ± 9.99 µM | 50.6 ± 8.63 µM | 0.0025 µM | – | –
CC1CCC(C(C)C)C(OCc2cn(CCOc3ccc4ccc(=O)oc4c3)nn2)C1 (centres unmarked) [Compound 36, 7-(2-(4-(((2-isopropyl-5-methylcyclohexyl)oxy)methyl)-1H-1,2,3-triazol-1-yl)ethoxy)-2H-chromen-2-one] | 122 to 123 °C | 38.2 ± 12.1 µM | – | – | – | – | – | –
C=CCc1ccc(OCc2cn(CCCCCCCCCOc3ccc4ccc(=O)oc4c3)nn2)c(OC)c1 [Compound 33, 7-((9-(4-((4-Allyl-2-methoxyphenoxy)methyl)-1H-1,2,3-triazol-1-yl)nonyl)oxy)-2H-chromen-2-one] | 83 to 84 °C | 31.3 ± 10.9 µM | – | – | – | 0.189 µM | – | –
C=CCc1ccc(OCc2cn(CCCCCCCCCCCCOc3ccc4ccc(=O)oc4c3)nn2)c(OC)c1 [Compound 35, 7-((12-(4-((4-Allyl-2-methoxyphenoxy)methyl)-1H-1,2,3-triazol-1-yl)dodecyl)oxy)-2H-chromen-2-one] | 72 to 74 °C | 23.2 ± 6.94 µM | – | – | – | 0.0299 µM | – | –
C=CCc1ccc(OCCCOc2ccc3ccc(=O)oc3c2)c(OC)c1 [Compound 61, 7-(3-(4-Allyl-2-methoxyphenoxy)propoxy)-2H-chromen-2-one] | 70 to 71 °C | > 80 µM | – | – | – | – | – | –
Cc1ccc(C(C)C)c(OCCOc2ccc3ccc(=O)oc3c2)c1 [Compound 44, 7-(2-(2-Isopropyl-5-methylphenoxy)ethoxy)-2H-chromen-2-one] | 181 to 182 °C | 55.6 ± 4.91 µM | – | – | – | – | – | –
C=CCc1ccc(OCc2cn(CCCCOc3ccc4ccc(=O)oc4c3)nn2)c(OC)c1 [Compound 30, 7-(4-(4-((4-Allyl-2-methoxyphenoxy)methyl)-1H-1,2,3-triazol-1-yl)butoxy)-2H-chromen-2-one] | 73 to 74 °C | 41.8 ± 13.5 µM | 51.2 ± 27 µM | 57.6 ± 23.9 µM | 26.8 ± 2.44 µM | – | – | –
Cc1ccc(C(C)C)cc1OCCCCCCCCCCCCOc1ccc2ccc(=O)oc2c1 [Compound 59, 7-((12-(5-Isopropyl-2-methylphenoxy)dodecyl)oxy)-2H-chromen-2-one] | 58 to 59 °C | > 200 µM | – | – | – | – | – | –
C=CCc1ccc(OCc2cn(CCCCCCCCCCOc3ccc4ccc(=O)oc4c3)nn2)c(OC)c1 [Compound 34, 7-((10-(4-((4-Allyl-2-methoxyphenoxy)methyl)-1H-1,2,3-triazol-1-yl)decyl)oxy)-2H-chromen-2-one] | 48 to 49 °C | 25.7 ± 8.15 µM | – | – | – | 0.0281 µM | – | –
Cc1ccc(C(C)C)cc1OCc1cn(CCCCCCCCCCOc2ccc3ccc(=O)oc3c2)nn1 [Compound 26, 7-((10-(4-((5-Isopropyl-2-methylphenoxy)methyl)-1H-1,2,3-triazol-1-yl)decyl)oxy)-2H-chromen-2-one] | 73 to 74 °C | 40.8 ± 10.2 µM | – | – | – | 0.258 µM | – | –
Cc1ccc(C(C)C)c(OCc2cn(CCCCCCCCCCOc3ccc4ccc(=O)oc4c3)nn2)c1 [Compound 18, 7-((10-(4-((2-Isopropyl-5-methylphenoxy)methyl)-1H-1,2,3-triazol-1-yl)decyl)oxy)-2H-chromen-2-one] | 72 to 73 °C | 41.5 ± 14.2 µM | – | – | – | 0.268 µM | – | –
Cc1ccc(C(C)C)cc1OCCCCOc1ccc2ccc(=O)oc2c1 [Compound 54, 7-(4-(5-Isopropyl-2-methylphenoxy)butoxy)-2H-chromen-2-one] | 74 to 75 °C | 59.8 ± 6.73 µM | – | – | – | – | – | –
